Reference: US20240247074A1, “THERAPEUTIC STRATEGY FOR NON-SMALL CELL LUNG CANCER AND OTHER CANCERS” (New York University, priority 2023, published 2024)

Columns and labels:
[1] = tested on: KL tumors (LKB1 mutant lung cancer tumors); experiment: KL tumor growth after EP300 inhibitor treatment; format: in vivo; conditions: FIG. 6C, 6D
Text: (§1) FIG. 6. EP300 inhibition suppresses LKB1 mutant tumor progression. (A), EP300 inhibitors CCS1477 and A485 suppresses CD38 expression in LKB1 mutant tumors. (B), Representative FACS analysis of CD38 expression after drug treatment. (C), Tumor volume changes of KL tumors after indicated EP300 inhibitors treatment. (D). Tumor growth curve of KL tumors treated with CCS1477 or A485.
(§2) Since LKB1/SIK suppresses CD38 expression through CTRC/EP300/CREB complex, we further tested inhibition of CD38 via EP300 inhibitors, including CCS1477 and A485, in LKB1 mutant lung cancer tumors.

CD38 expression [2] = experiment: FACS analysis of CD38 expression in LKB1 mutant tumors after EP300 inhibitor treatment; format: cell-based; conditions: LKB1 mutant lung cancer tumors, FIG. 6A, 6B
Text: as §1, §2

CD38 expression [3] = experiment: Flow cytometric analysis of CD38 expression after SIK inhibitor treatment in LKB1 WT mouse cancer cell lines; format: cell-based; conditions: LKB1 WT mouse lung cancer (KPC), colon cancer (CT26, MC38) and pancreatic cancer (KP1) lines; flow cytometry; FIG. 3
Text: FIG. 3. SIK inhibitor increases upregulation of CD38 in LKB1 wildtype tumors. Flow cytometric analysis of CD38 expression changes after SIK inhibitor YKL-05-099 treatment in lung cancer (KPC) (A), and colon cancer (CT26, MC38) or pancreatic cancer (KP1) lines (B) at the indicated time points and concentration.
In line with the results of the LKB1 rescue studies, CRISPR-mediated knockout of Lkb1 in murine KP NSCLC cells led to increased cell surface expression of CD38 (FIG. 2A, 2B). We subsequently tested the impact of knockout of Sik1, Sik2 and Sik3, alone or in combination. We observed prominent increases in CD38 expression at the cell surface in KP cells upon inactivation of Sik1 or of all three SIK family members, but not to the level of CD38 in KP sgLkb1 cells (FIG. 2A, 2B). Without intending to be constrained by any particular theory, it is considered this indicates other factors other than SIK1/2/3 downstream of LKB1, might also contribute to the suppression of CD38 expression.

A549 xenograft tumor = A549 xenograft tumor growth in nu/nu mice; format: in vivo, mouse; conditions: LKB1 mutant A549 xenograft, 12.5 mg/kg once per week from about 100 mm^3, vs hIgG1, FIG. 5
Method: (§3) FIG. 5. Daratumumab induces killing of CD38 positive lung cancer. […] A549 (A-C) or HCC44 (D-F) xenograft tumor growth in response to daratumumab treatment. For each mouse, 3×10^6 A549 cells (A) or 5×10^5 HCC44 (D) were implanted into nu/nu mice subcutaneously. Daratumumab or hIgG1 (12.5 mg/kg, once per week) was dosed when tumor size reached 100 mm^3. Growth curve of A549 cells (A) or HCC44 (D) after daratumumab treatment. B-C, Individual mouse tumor growth curve for A549 xenografts treated with either hIgG1 (B) or Daratumumab (C) shown in panel A. (E-F), Individual mouse tumor growth curve for HCC44 xenograft treated with either hIgG1 (E) or Daratumumab (F) shown in panel D.
(§4) To study the effects of daratumumab in vivo, we implanted the LKB1 mutant A549 and HCC44 cell lines into athymic nude (nu/nu) mice to generate tumor xenografts. Daratumumab is a human IgG1, which can be recognized by mouse FcγRs on effector cells, resulting in ADCC induced between daratumumab with mouse NK cells through crosstalk, enabling evaluation of NK cell-mediated tumor cell killing in vivo. When tumors reached approximately 100 mm^3 in volume, mice were treated with daratumumab once weekly.

HCC44 xenograft tumor = HCC44 xenograft tumor growth in nu/nu mice; format: in vivo, mouse; conditions: LKB1 mutant HCC44 xenograft, 12.5 mg/kg once per week from about 100 mm^3, vs hIgG1, FIG. 5
Method: as §3, §4

| Compound | tumor growth in vivo [1] | CD38 expression on the tumor cells (CD38 expression [2]) | CD38 expression change (CD38 expression [3]) | tumor growth (A549 xenograft tumor) | tumor growth (HCC44 xenograft tumor) |
| --- | --- | --- | --- | --- | --- |
| CNC(=O)Nc1ccc2c(c1)CC[C@@]21OC(=O)N(CC(=O)N(Cc2ccc(F)cc2)[C@@H](C)C(F)(F)F)C1=O [A485] | reduced tumor growth | decrease of CD38 expression |  |  |  |
| CO[C@H]1CC[C@H](n2c([C@@H]3CCCC(=O)N3c3ccc(F)c(F)c3)nc3cc(-c4c(C)noc4C)ccc32)CC1 [CCS1477] | reduced tumor growth | decrease of CD38 expression |  |  |  |
| COc1ccc(N2C(=O)N(c3c(C)cccc3Cl)Cc3cnc(Nc4ccc(C5CCN(C)CC5)cc4OC)nc32)nc1 [YKL-05-099] |  |  | upregulated CD38 |  |  |
| daratumumab: first approved antibody against CD38, a fully human IgG1-κ monoclonal antibody |  |  |  | significant reduction in tumor growth | significant reduction in tumor growth |
